# Source: patent publication US9598446B2, “Amino compounds for treatment of complement mediated disorders” (priority 2014, dated 2017)
# Target: Human factor D (Homo sapiens (Human), UniProt P00746)
# Assay: Human Factor D Assay
# Format: biochemical
# Conditions: human factor D 80 nM, substrate Z-L-Lys-SBz1 and DTNB 100 μM each, pH 7.5; read-out: IC50
# Procedure: Human factor D (purified from human serum, Complement Technology, Inc.) at 80 nM final concentration is incubated with test compound at various concentrations for 5 minutes at room temperature in 50 mM Tris, 1M NaCl, pH 7.5. A synthetic substrate Z-L-Lys-SBz1 and DTNB (Ellman's reagent) are added to final concentrations of 100 μM each. The increase in color is recorded at OD405 nm in a microplate in kinetic mode over 30 minutes with 30 second time points in a spectrofluorimeter. IC50 values are calculated by non-linear regression from the percentage of inhibition of complement factor D activity as a function of test compound concentration.
# Sequence of Human factor D (P00746 26-253): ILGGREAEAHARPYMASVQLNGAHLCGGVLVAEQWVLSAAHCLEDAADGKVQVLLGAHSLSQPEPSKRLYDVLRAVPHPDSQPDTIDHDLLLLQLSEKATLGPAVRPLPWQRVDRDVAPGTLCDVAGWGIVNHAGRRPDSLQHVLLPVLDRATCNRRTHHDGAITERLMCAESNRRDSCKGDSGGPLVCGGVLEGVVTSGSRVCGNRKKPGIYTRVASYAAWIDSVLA
row,Structure (SMILES),IC50
1,"CC(=O)c1cn(CC(=O)N2C[C@H](F)C[C@H]2C(=O)Nc2cc(C)nn2-c2ccccc2F)c2ccc(Nc3cncnc3)cc12 [Compound 57, (2S,4R)-1-(2-(3-acetyl-5-(pyrimidin-5-ylamino)-1H-indol-1-yl)acetyl)-4-fluoro-N-(1-(2-fluorophenyl)-3-methyl-1H-pyrazol-5-yl)pyrrolidine-2-carboxamide]",< 1000 nM
2,"CC(=O)c1cn(CC(=O)N2C[C@H](F)C[C@H]2C(=O)NC2CCCN(c3ccccc3Cl)C2=O)c2ccc(Nc3cncnc3)cc12 (stereo partly drawn) [Compound 58, (2S,4R)-1-(2-(3-acetyl-5-(pyrimidin-5-ylamino)-1H-indol-1-yl)acetyl)-N-(1-(2-chlorophenyl)-2-oxopiperidin-3-yl)-4-fluoropyrrolidine-2-carboxamide]",< 1000 nM
3,"CC(=O)c1cn(CC(=O)N2C[C@H](F)C[C@H]2C(=O)NCc2ccncc2)c2ccc(Nc3cncnc3)cc12 [Compound 59, (2S,4R)-1-(2-(3-acetyl-5-(pyrimidin-5-ylamino)-1H-indol-1-yl)acetyl)-4-fluoro-N-(pyridin-4-ylmethyl)pyrrolidine-2-carboxamide]",< 1000 nM
4,"CC(=O)c1cn(CC(=O)N2C[C@H](F)C[C@H]2C(=O)Nc2nc(-c3cccc(Cl)c3)ns2)c2ccc(Nc3cncnc3)cc12 [Compound 60, (2S,4R)-1-(2-(3-acetyl-5-(pyrimidin-5-ylamino)-1H-indol-1-yl)acetyl)-N-(3-(3-chlorophenyl)-1,2,4-thiadiazol-5-yl)-4-fluoropyrrolidine-2-carboxamide]",> 10000 nM
5,"CC(=O)c1cn(CC(=O)N2C[C@H](F)C[C@H]2C(=O)Nc2ccccc2-c2nncn2C)c2ccc(Nc3cncnc3)cc12 [Compound 61, (2S,4R)-1-(2-(3-acetyl-5-(pyrimidin-5-ylamino)-1H-indol-1-yl)acetyl)-4-fluoro-N-(2-(4-methyl-4H-1,2,4-triazol-3-yl)phenyl)pyrrolidine-2-carboxamide]",> 10000 nM
6,"CC(=O)c1cn(CC(=O)N2C[C@H](F)C[C@H]2C(=O)Nc2noc(-c3ccccc3Cl)n2)c2ccc(Nc3cncnc3)cc12 [Compound 62, (2S,4R)-1-(2-(3-acetyl-5-(pyrimidin-5-ylamino)-1H-indol-1-yl)acetyl)-N-(5-(2-chlorophenyl)-1,2,4-oxadiazol-3-yl)-4-fluoropyrrolidine-2-carboxamide]",< 1000 nM
7,"CC(=O)c1cn(CC(=O)N2C[C@H](F)C[C@H]2C(=O)NC2CCCN(c3cc(C)ccc3F)C2=O)c2ccc(Nc3cncnc3)cc12 (stereo partly drawn) [Compound 63, (2S,4R)-1-(2-(3-acetyl-5-(pyrimidin-5-ylamino)-1H-indol-1-yl)acetyl)-4-fluoro-N-(1-(2-fluoro-5-methylphenyl)-2-oxopiperidin-3-yl)pyrrolidine-2-carboxamide]",< 1000 nM
8,"CC(=O)c1cn(CC(=O)N2C[C@H](F)C[C@H]2C(=O)NC2CCN(c3ccn(C)n3)C2=O)c2ccc(Nc3cncnc3)cc12 (stereo partly drawn) [Compound 64, (2S,4R)-1-(2-(3-acetyl-5-(pyrimidin-5-ylamino)-1H-indol-1-yl)acetyl)-4-fluoro-N-(1-(1-methyl-1H-pyrazol-3-yl)-2-oxopyrrolidin-3-yl)pyrrolidine-2-carboxamide]",< 1000 nM
9,"CC(=O)c1cn(CC(=O)N2C[C@H](F)C[C@H]2C(=O)Nc2cccc(O)n2)c2ccc(Nc3cncnc3)cc12 [Compound 68, (2S,4R)-1-(2-(3-acetyl-5-(pyrimidin-5-ylamino)-1H-indol-1-yl)acetyl)-4-fluoro-N-(6-hydroxypyridin-2-yl)pyrrolidine-2-carboxamide]",< 1000 nM
